Measured values from US7412284B2, “Apparatus for electroporation mediated delivery for drugs and genes” (Genetronics, Inc., priority 1997, dated 2008).

Key:
[1] = test system: basal cell carcinomas and melanomas; experiment: Clinical trials of bleomycin-EPT for basal cell carcinomas and melanomas; format: in vivo, humans; details: for % RESPONSE CR D′D / % RESPONSE CR D′E′ / TUMOR RESPONSE CR D′D / TUMOR RESPONSE CR D′E′: CR=complete response; for % RESPONSE NE D′D / % RESPONSE NE D′E′ / TUMOR RESPONSE NE D′D / TUMOR RESPONSE NE D′E′: NE=no effect
Excerpt: The following examples illustrate the use of EPT in cell lines, animals and humans. Example 1 illustrates EPT in poorly differentiated human pancreatic tumors (Panc-3) xenografted subcutaneously on the flank of nude mice. […] Example 4 provides in vitro data for EPT utilizing low voltage (electric field) and long pulse length. The parameters for EPT are described in the examples; for Example 1 and for the head and neck clinical trials, the nominal electric field was 1300 V/cm and 6 pulses for 99-100 μsec, spaced at 1 second intervals. The clinical trials (Example 2) used similar parameters, however the electric field was 1130 V/cm. (Nominal electric field (V/cm) is applied voltage (V) across the needle pairs divided by the distance between the needle pairs (cm).) The Examples illustrate the use of EPT for effectively killing undesired cell populations (e.g., a tumor) in vitro and in vivo.
The effectiveness of bleomycin-EPT on the tumors was to be assessed by the end of the eight-week period using the same tumor response criteria as employed in Example 1.
The concentration of bleomycin administered was 5 U/1 mL. The dosages of bleomycin were administered as follows: […]

[2] = test system: human prostate xenografts (PC-3); experiment: EPT using MedPulser, PC-3 xenograft; format: in vivo, nude mice; details: no tumors observed up to 60 days after treatment
Excerpt: Preliminary experiments using MedPulser™ (apparatus of the invention) for treatment of tumor xenografts grown subcutaneously onto nude mice have shown encouraging results. […] Treatment of human prostate xenografts (PC-3) has also shown about 66% complete regression of tumors. (No tumors observed up to 60 days after treatment). Both 4 and 6 needle array are effective in treatment of tumors by EPT.

[3] = test system: non-small cell lung cancer cell line (NSCLC), 177; experiment: EPT with bleomycin of NSCLC xenografts in nude mice; format: in vivo
[4] = BCC nodules, PR=partial response
[5] = Mel nodules, PR=partial response
[6] = Other nodules, PR=partial response
[7] = Total nodules, PR=partial response

Q: Which results are given for bleomycin?
A: % RESPONSE CR D′D ([1]; BCC nodules): 0%; % RESPONSE CR D′E′ ([1]; BCC nodules): 98%; TUMOR RESPONSE CR D′D ([1]; BCC nodules): 0/6; TUMOR RESPONSE CR D′E′ ([1]; BCC nodules): 43/44; % RESPONSE NE D′D ([1]; BCC nodules): 83%; % RESPONSE NE D′E′ ([1]; BCC nodules): 0%; TUMOR RESPONSE NE D′D ([1]; BCC nodules): 5/6; TUMOR RESPONSE NE D′E′ ([1]; BCC nodules, less than 50% reduction in tumor volume): 0/44; TUMOR RESPONSE PR D′E′ ([1]; BCC nodules, PR=50% or greater reduction in tumor volume): 1/44; % RESPONSE PR D′D [1, 4]: 17%; % RESPONSE PR D′E′ [1, 4]: 2%; TUMOR RESPONSE PR D′D [1, 4]: 1/6; % RESPONSE CR D′D ([1]; Mel nodules): 0%; % RESPONSE CR D′E′ ([1]; Mel nodules): 91%; TUMOR RESPONSE CR D′D ([1]; Mel nodules): 0/5; TUMOR RESPONSE CR D′E′ ([1]; Mel nodules): 53/58; % RESPONSE NE D′D ([1]; Mel nodules): 100%; % RESPONSE NE D′E′ ([1]; Mel nodules): 2%; TUMOR RESPONSE NE D′D ([1]; Mel nodules): 5/5; TUMOR RESPONSE NE D′E′ ([1]; Mel nodules): 1/58; % RESPONSE PR D′D [1, 5]: 0%; % RESPONSE PR D′E′ [1, 5]: 7%; TUMOR RESPONSE PR D′D [1, 5]: 0/5; TUMOR RESPONSE PR D′E′ [1, 5]: 4/58; % RESPONSE CR D′D ([1]; Other nodules): 0%; % RESPONSE CR D′E′ ([1]; Other nodules): 80%; TUMOR RESPONSE CR D′D ([1]; Other nodules): 0/3; TUMOR RESPONSE CR D′E′ ([1]; Other nodules): 4/5; % RESPONSE NE D′D ([1]; Other nodules): 100%; % RESPONSE NE D′E′ ([1]; Other nodules): 0%; TUMOR RESPONSE NE D′D ([1]; Other nodules): 3/3; TUMOR RESPONSE NE D′E′ ([1]; Other nodules): 0/5; % RESPONSE PR D′D [1, 6]: 0%; % RESPONSE PR D′E′ [1, 6]: 20%; TUMOR RESPONSE PR D′D [1, 6]: 0/3; TUMOR RESPONSE PR D′E′ [1, 6]: 1/5; % RESPONSE CR D′D ([1]; Total nodules): 0%; % RESPONSE CR D′E′ ([1]; Total nodules): 93%; TUMOR RESPONSE CR D′D ([1]; Total nodules): 0/14; TUMOR RESPONSE CR D′E′ ([1]; Total nodules): 100/107; % RESPONSE NE D′D ([1]; Total nodules): 93%; % RESPONSE NE D′E′ ([1]; Total nodules): 1%; TUMOR RESPONSE NE D′D ([1]; Total nodules): 13/14; TUMOR RESPONSE NE D′E′ ([1]; Total nodules): 1/107; % RESPONSE PR D′D [1, 7]: 7%; % RESPONSE PR D′E′ [1, 7]: 6%; TUMOR RESPONSE PR D′D [1, 7]: 1/14; TUMOR RESPONSE PR D′E′ [1, 7]: 6/107; complete regression of tumors [2]: about 66%; EPT treatment result ([3]; bleomycin + EPT, NSCLC xenograft): very encouraging results; tumor after retreatment ([3]; recurred tumor retreated at day 27, after 7 days): no evidence of tumor
